# Results from publication PMC5557466, “Precision medicine approaches to lung adenocarcinoma with concomitant MET and HER2 amplification” (BMC Cancer, 2017).
# How the values were obtained:
# Format in all cases: cell-based, human
# 033 T PDX cells = assay: In vitro drug sensitivity assay (ATPlite cell viability, 6 days, sphere culture); conditions: for IC50: Homo sapiens, primary culture in serum-free sphere conditions; for effect on 033 T cell proliferation (in words): in vitro drug screen
# Protocol: (§1) Primary cultures of PDX cells in the serum-free sphere culture conditions were seeded in 384-well plates, at 500 cells per well. Two hours after plating, cells were treated with a drug library in three-fold and 10-point serial dilutions (n = 3, for each condition). Cells were incubated for 6 days at 37 °C, in a 5% CO2 humidified incubator, and the cell viability was analyzed using an adenosine triphosphate monitoring system based on firefly luciferase (ATPlite 1step; PerkinElmer, Waltham, MA, USA). […] The drugs were stored and diluted according to the manufacturer’s instructions. The tested concentrations for each drug were empirically derived, in order to investigate a clinically relevant spectrum of drug activities. IC50 values were calculated as an average of triplicate experiments using S+ Chip Analyzer (Samsung Electro-Mechanics Company, Ltd., Suwon, Korea). In order to investigate the effects of the treatment with targeted agents, signal transduction assays were performed using primarily cultured NSCLC PDX cells, which were maintained overnight in serum-free sphere culture conditions, without growth factors, incubated for 1 h with each inhibitor, and pulsed with original culture medium supplemented with bFGF/EGF/NRG/IGF for 15 min.
# phosphorylation of MET = assay: Signal transduction assay, western blot; conditions: 033 T cells
# Protocol: as §1
# 033 T cells [1] = assay: Cell proliferation time course of 033 T cells (WST-1); conditions: from day 5 onward
# Protocol: (§2) Xenograft tumor specimens were dissociated into single cells according to previously published protocol. Dissociated cells were cultured in Neurobasal medium-A, supplemented with N2 (×1/2; Life Technologies, Carlsbad, CA, USA), B27 (×1/2; GIBCO), basic fibroblast growth factor (bFGF; 25 ng/mL; R&D Systems, Minneapolis, MN, USA), EGF (25 ng/mL; R&D Systems, Minneapolis, MN, USA), neuregulin 1 (NRG; 10 ng/mL; R&D Systems, Minneapolis, MN, USA), and insulin-like growth factor 1 (IGF1; 100 ng/mL; R&D Systems, Minneapolis, MN, USA). Growth factors were supplemented every 3 days. When spheres appeared in the suspension culture, they were dissociated using StemPro Accutase (Life Technologies, Carlsbad, CA, USA), and reseeded in the suspension culture medium. Cells were grown in complete medium and treated with inhibitors 1 day after seeding. Five days later, the surviving cells were quantified by WST-1 staining (Roche Genentech, San Francisco, CA, USA).
# 033 T cells [2] = assay: Tumor sphere formation in 033 T cell cultures
# Protocol: as §2
# [3] = tested on: phosphorylation of ERK1/2; assay: Signal transduction assay, western blot; conditions: 033 T cells
# Protocol: (§3) Primary cultures of PDX cells in the serum-free sphere culture conditions were seeded in 384-well plates, at 500 cells per well. Two hours after plating, cells were treated with a drug library in three-fold and 10-point serial dilutions (n = 3, for each condition). Cells were incubated for 6 days at 37 °C, in a 5% CO2 humidified incubator, and the cell viability was analyzed using an adenosine triphosphate monitoring system based on firefly luciferase (ATPlite 1step; PerkinElmer, Waltham, MA, USA). The drug library was composed of 17 targeted agents that were included in the clinical guidelines or current clinical trials for the treatment of NSCLC (gefitinib, erlotinib, lapatinib, afatinib, neratinib, caneratinib, dacomitinib, infigratinib, vandetanib, sunitinib, imatinib, CI-1040, vemurafenib, palbociclib, crizotinib, sonidegib, buparlisib; all purchased from Selleckchem, Houston, TX, USA). The drugs were stored and diluted according to the manufacturer’s instructions. The tested concentrations for each drug were empirically derived, in order to investigate a clinically relevant spectrum of drug activities. IC50 values were calculated as an average of triplicate experiments using S+ Chip Analyzer (Samsung Electro-Mechanics Company, Ltd., Suwon, Korea). […]
# phosphorylation of STAT3 = assay: Signal transduction assay, western blot; conditions: 033 T cells
# Protocol: as §3
# [4] = resistant if IC50 > 1000 nmol/L
SMILES,IC50 (033 T PDX cells; [4]) [nM],effect on 033 T cell proliferation (in words) (033 T PDX cells),other results
CN(C)C/C=C/C(=O)Nc1cc2c(Nc3ccc(F)c(Cl)c3)ncnc2cc1O[C@H]1CCOC1 [afatinib],971,,
Nc1cc(C(F)(F)F)c(-c2cc(N3CCOCC3)nc(N3CCOCC3)n2)cn1 [buparlisib],507,,
C=CC(=O)Nc1cc2c(Nc3ccc(F)c(Cl)c3)ncnc2cc1OCCCN1CCOCC1 [canertinib],80,effective,
C[C@@H](Oc1cc(-c2cnn(C3CCNCC3)c2)cnc1N)c1c(Cl)ccc(F)c1Cl [crizotinib],691,,phosphorylation of MET (phosphorylation of MET): completely abolishing; cell proliferation (033 T cells [1]): significantly inhibited cell proliferation; tumor sphere formation (033 T cells [2]): impaired tumor sphere formation; phosphorylation of ERK1/2 [3]: completely abolishing; phosphorylation of STAT3 (phosphorylation of STAT3): completely abolishing
C#Cc1cccc(Nc2ncnc3cc(OCCOC)c(OCCOC)cc23)c1 [erlotinib],,,IC50 (033 T PDX cells; […]): 836 nM
COc1cc2ncnc(Nc3ccc(F)c(Cl)c3)c2cc1OCCCN1CCOCC1 [gefitinib],,marked inhibitory effects,
CS(=O)(=O)CCNCc1ccc(-c2ccc3ncnc(Nc4ccc(OCc5cccc(F)c5)c(Cl)c4)c3c2)o1 [lapatinib],1560,,
CCOc1cc2ncc(C#N)c(Nc3ccc(OCc4ccccn4)c(Cl)c3)c2cc1NC(=O)/C=C/CN(C)C [neratinib],,marked inhibitory effects,IC50 (033 T PDX cells; […]): 133 nM
